Measurements: patent US12336991B2, “Factor XIIA inhibitors” (UNIVERSITY OF LEEDS, priority 2018, dated 2025)

Assays:
Assay type in all cases: biochemical
[1] = target: T1, FXIIa (Homo sapiens, UniProt P00748); assay: Determination of Factor XIIa inhibition, chromogenic substrate S-2302 assay; conditions: human FXIIa alpha
T1 sequence (P00748 373-615 limits assumed): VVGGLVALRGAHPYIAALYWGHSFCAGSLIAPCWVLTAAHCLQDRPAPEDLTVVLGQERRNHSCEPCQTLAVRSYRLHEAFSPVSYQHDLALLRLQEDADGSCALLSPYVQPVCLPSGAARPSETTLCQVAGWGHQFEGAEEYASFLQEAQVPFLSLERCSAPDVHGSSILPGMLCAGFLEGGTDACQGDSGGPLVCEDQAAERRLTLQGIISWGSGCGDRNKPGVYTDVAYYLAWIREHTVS
T1 sequence (P00748 20-372 partner limits assumed): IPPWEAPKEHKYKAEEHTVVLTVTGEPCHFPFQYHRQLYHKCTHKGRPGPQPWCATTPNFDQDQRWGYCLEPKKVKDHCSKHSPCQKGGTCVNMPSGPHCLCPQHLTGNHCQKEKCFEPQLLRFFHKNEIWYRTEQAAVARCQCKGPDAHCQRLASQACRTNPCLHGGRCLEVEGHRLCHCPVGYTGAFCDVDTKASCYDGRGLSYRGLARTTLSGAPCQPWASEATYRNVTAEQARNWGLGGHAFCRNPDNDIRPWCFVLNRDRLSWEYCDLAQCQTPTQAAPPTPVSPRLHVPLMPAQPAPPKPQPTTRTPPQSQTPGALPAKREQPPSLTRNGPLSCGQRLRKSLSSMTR
Method in brief: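 FXIIa (10 nM) preincubated with compound 10 min at 37° C. in 50 mM Tris, 137 mM NaCl pH 7.4, 5% DMSO, top concentration 500 μM, then S-2302 added ([…]). Absorbance at 405 nm read kinetically for 3 h; IC50 from initial rates, converted to Ki by Cheng-Prusoff.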

[2] = target: T2, thrombin (Homo sapiens, UniProt P00734); assay: Determination of selectivity: thrombin inhibition, chromogenic substrate GPR assay; conditions: fold selectivity for FXIIa over thrombin
T2 construct: FXa (5 nM) and thrombin (5 nM)
Method in brief: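 Thrombin (5 nM) preincubated with compound 10 min at 37 °C in 50 mM Tris, 137 mM NaCl, pH 7.4, 5% DMSO, then GPR substrate ([…]) added. Absorbance at 405 nm read kinetically for 3 h; IC50 from initial rates, converted to Ki via Ki=IC50/(1+[S]/Km).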

[3] = target: FXa (Homo sapiens, UniProt P00742); assay: Determination of selectivity: FXa inhibition, chromogenic substrate S2765 assay; conditions: fold selectivity for FXIIa over FXa
Chain of FXa (P00742 235-488 limits assumed): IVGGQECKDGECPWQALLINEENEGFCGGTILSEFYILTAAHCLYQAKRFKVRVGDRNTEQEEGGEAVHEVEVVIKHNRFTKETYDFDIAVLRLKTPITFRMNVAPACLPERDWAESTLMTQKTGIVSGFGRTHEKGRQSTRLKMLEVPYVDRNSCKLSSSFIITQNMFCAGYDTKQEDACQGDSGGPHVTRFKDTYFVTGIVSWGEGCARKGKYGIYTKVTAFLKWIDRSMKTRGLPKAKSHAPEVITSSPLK
Chain of FXa (P00742 41-179 partner limits assumed): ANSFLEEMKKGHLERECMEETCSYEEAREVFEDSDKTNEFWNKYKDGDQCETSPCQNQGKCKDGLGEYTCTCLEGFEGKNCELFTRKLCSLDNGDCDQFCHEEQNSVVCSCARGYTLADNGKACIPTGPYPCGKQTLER
Method in brief: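 Human FXa (5 nM) preincubated with compound (top 500 μM, 5% DMSO) 10 min at 37 °C in 50 mM Tris, 137 mM NaCl pH 7.4, then S2765 ([…]) added; A405 kinetics over 3 h at 37 °C. IC50 from initial rates, converted to Ki via Cheng-Prusoff.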

Compound | Ki [1] | FXa (human)/FXIIa alpha (human) [3] | Thrombin (human)/FXIIa alpha (human) [2]
COc1cc(CNC(=O)[C@@H]2C[C@@H](C)CN2C(=O)[C@H](N)CCc2ccccc2)ccc1CN [Example M05074] | 200 to 2000 nM | ∘∘∘ | + (fold selectivity values less than 10)
COc1ccc(C[C@@H]2C[C@@H](C(=O)NCc3ccc4c(c3)nnn4C)N(C(=O)C3NCCc4cc(Cl)ccc43)C2)cc1 (stereo partly drawn) [Example M05430] | 200 to 2000 nM | ∘∘∘ | +++ (fold selectivity values greater than 100)
COc1ccc(C[C@@H]2C[C@@H](C(=O)NCc3ccc4c(c3)nnn4C)N(C(=O)[C@H](N)CCC(=O)N3CCCNCC3)C2)cc1 [Example M05461] | < 200 nM | ∘∘∘ | +++ (fold selectivity values greater than 100)
COc1ccc(C[C@@H]2C[C@@H](C(=O)NCc3cc4cnccc4[nH]3)N(C(=O)[C@H]3C[C@@H](N4CCCCC4)CN3)C2)cc1 [Example M00964] | < 200 nM | ∘∘∘ | +++ (fold selectivity values greater than 100)
Nc1nccc2cc(CNC(=O)[C@@H]3C[C@H](C(F)(F)F)CN3C(=O)[C@H](N)CCC(=O)N3CCCC3)ccc12 [Example M05265] | 200 to 2000 nM | ∘ | + (fold selectivity values less than 10)
COc1ccc(C[C@@H]2C[C@@H](C(=O)NCc3ccc4c(c3)nnn4C)N(C(=O)[C@H](N)CCC(=O)N3C4CCC3CNC4)C2)cc1 [Example M05420] | < 200 nM | ∘∘∘ | +++ (fold selectivity values greater than 100)
Cn1nnc2cc(CNC(=O)[C@@H]3C[C@@H](Cc4ccncc4)CN3C(=O)[C@H](N)CCC(=O)N3CCCC3)ccc21 [Example M05189] | 200 to 2000 nM | ∘∘∘ | +++ (fold selectivity values greater than 100)
N[C@H](CCC(=O)N1CCCC1)C(=O)N1C[C@H](Cc2ccc(C(F)(F)F)cc2)C[C@H]1C(=O)NCc1cc2cnccc2[nH]1 [Example M00969] | < 200 nM | ∘∘∘ | +++ (fold selectivity values greater than 100)
COc1ccc(C[C@@H]2C[C@@H](C(=O)NCc3ccc4c(c3)nnn4C)N(C(=O)[C@H]3C[C@@H](c4ncccn4)CN3)C2)cc1 [Example M05387] | 200 to 2000 nM | ∘∘∘ | +++ (fold selectivity values greater than 100)
Cn1ccnc1CC1C[C@@H](C(=O)NCc2ccc3c(c2)nnn3C)N(C(=O)[C@H](N)CCC(=O)N2CCCC2)C1 (stereo partly drawn) [Example M05297] | 200 to 2000 nM | ∘∘∘ | +++ (fold selectivity values greater than 100)
COc1ccc(C[C@@H]2C[C@@H](C(=O)NCc3ccc4c(Cl)nn(C)c4c3)N(C(=O)[C@H](N)CCC(=O)N3CCCC3)C2)cc1 [Example M05449] | < 200 nM | ∘∘∘ | +++ (fold selectivity values greater than 100)
COc1ccc(C[C@@H]2C[C@@H](C(=O)NCc3ccc4c(c3)nnn4C)N(C(=O)[C@H]3CC(c4cccnc4C)CN3)C2)cc1 (stereo partly drawn) [Example M05406] | 200 to 2000 nM | ∘∘∘ | +++ (fold selectivity values greater than 100)
Cn1nnc2cc(CNC(=O)[C@@H]3CC(Cc4ccc(F)c(Cl)c4F)CN3C(=O)[C@H](N)CCC(=O)N3CCCC3)ccc21 (stereo partly drawn) [Example M05295] | 200 to 2000 nM | ∘∘∘ | +++ (fold selectivity values greater than 100)
Cc1ccc(C[C@@H]2C[C@@H](C(=O)NCc3cc4cnccc4[nH]3)N(C(=O)[C@H](N)CCC(=O)N3CCCC3)C2)cc1 [Example M00968] | < 200 nM | ∘∘∘ | +++ (fold selectivity values greater than 100)
COc1ccc(C[C@@H]2C[C@@H](C(=O)NCc3cc4cnccc4[nH]3)N(C(=O)C3NCCc4cc(Cl)ccc43)C2)cc1 (stereo partly drawn) [Example M00965] | < 200 nM | ∘∘∘ | +++ (fold selectivity values greater than 100)
Cn1nnc2cc(CNC(=O)[C@@H]3C[C@H](c4ccccc4Oc4ccccc4)CN3C(=O)[C@H](N)CCc3ccccc3)ccc21 [Example M05174] | > 2000 nM | ∘∘ | ++ (fold selectivity value of 10 to 100)
Cn1nnc2cc(CNC(=O)[C@@H]3C[C@@H](Cc4ccc5c(c4)OCO5)CN3C(=O)[C@H]3C[C@@H](c4ccccc4)CN3)ccc21 [Example M05390] | 200 to 2000 nM | ∘∘∘ | ++ (fold selectivity value of 10 to 100)
Cn1nnc2cc(CNC(=O)[C@@H]3C[C@@H](Cc4ccc(F)c(F)c4)CN3C(=O)C3C[C@@H](c4ccccc4)CN3)ccc21 (stereo partly drawn) [Example M05325] | > 2000 nM | ∘∘ | ++ (fold selectivity value of 10 to 100)
COc1ccc(C[C@@H]2C[C@@H](C(=O)NCc3ccc4c(c3)nnn4C)N(C(=O)[C@H]3C[C@@H](c4cnn(C)c4)CN3)C2)cc1 [Example M05381] | 200 to 2000 nM | ∘∘∘ | +++ (fold selectivity values greater than 100)

Now from value to compound, other results behind:

Ki [1] | FXa (human)/FXIIa alpha (human) [3] | Compound | Thrombin (human)/FXIIa alpha (human) [2]
> 2000 nM | ∘∘ | Cn1nnc2cc(CNC(=O)[C@@H]3C[C@H](C(F)(F)F)CN3C(=O)[C@H](N)CCc3ccccc3)ccc21 [Example M05102] | ++ (fold selectivity value of 10 to 100)
200 to 2000 nM | ∘∘∘ | CN(C)[C@H](CCC(=O)N1CCCC1)C(=O)N1C[C@H](Cc2ccncc2)C[C@H]1C(=O)NCc1ccc2c(c1)nnn2C [Example M05220] | +++ (fold selectivity values greater than 100)
< 200 nM | ∘∘∘ | COc1ccc(C[C@@H]2C[C@@H](C(=O)NCc3cc4ccncc4[nH]3)N(C(=O)[C@H](N)CCC(=O)N3CCCC3)C2)cc1 [Example M00952] | +++ (fold selectivity values greater than 100)
200 to 2000 nM | ∘∘∘ | COc1ccc(C[C@@H]2C[C@@H](C(=O)NCc3ccc4c(c3)nnn4C)N(C(=O)[C@H]3CC(c4cnccn4)CN3)C2)cc1 (stereo partly drawn) [Example M05459] | +++ (fold selectivity values greater than 100)
200 to 2000 nM | ∘∘∘ | Cn1nnc2cc(CNC(=O)[C@@H]3CC(Cc4ccnc(F)c4)CN3C(=O)[C@H](N)CCC(=O)N3CCCC3)ccc21 (stereo partly drawn) [Example M05314] | ++ (fold selectivity value of 10 to 100)
> 2000 nM | ∘∘ | Cn1nnc2cc(CNC(=O)[C@@H]3C[C@@H](Cc4ccncc4)CN3C(=O)[C@@H](CCC(=O)N3CCCC3)NS(=O)(=O)c3ccccc3)ccc21 [Example M05290] | +++ (fold selectivity values greater than 100)
< 200 nM | ∘∘∘ | COc1ccc(C[C@@H]2C[C@@H](C(=O)NCc3ccc4c(c3)nnn4C)N(C(=O)[C@H](N)CCC(=O)N3CCC[C@@H]3C#N)C2)cc1 [Example M05458] | +++ (fold selectivity values greater than 100)
< 200 nM | ∘∘∘ | COc1ccc(C[C@@H]2C[C@@H](C(=O)NCc3ccc4c(c3)nnn4C)N(C(=O)[C@H](N)CCC(=O)N3CCC[C@H]3C#N)C2)cc1 [Example M05402] | +++ (fold selectivity values greater than 100)
> 2000 nM | ∘∘ | Cn1nnc2cc(CNC(=O)[C@@H]3C[C@@H](Cc4ccccc4F)CN3C(=O)[C@H]3C[C@@H](c4ccccc4)CN3)ccc21 [Example M05332] | ++ (fold selectivity value of 10 to 100)
> 2000 nM | ∘∘ | Cn1nnc2cc(CNC(=O)[C@@H]3C[C@@](O)(c4ccccc4)CN3C(=O)[C@H](N)CCc3ccccc3)ccc21 [Example M05126] | ++ (fold selectivity value of 10 to 100)
